Each structure is given as a SMILES string.

A short description of data set [1]: Animal body weight during treatment. In kind it is in vivo, nude mice. Conditions: compared to saline-treated BxPC3 tumor-bearing mice. Here is the method: (A) The animal treatments are described in the method section. BxPC3 cells were subcutaneously injected into mice 7 days before treatments (gray boxes). These animals received six i.v. injections (red boxes) every 3-6 days (green boxes) for 38 days as shown. The tumor inhibition effect of two-wave treatment was compared to saline, GEM-Lip alone, free GEM, empty liposome, and TGFβi-MSNP. Tumor size was accurately measured 1-2 times per week. Tumor weight was calculated according to the formula Tumor weight (mg)=(length in mm)×(width in mm)2/2. *P<0.05, compared to GEM-Lip group. (B) The animal weights were recorded at indicate time points and expressed for the experimental duration. *P<0.05, compared to saline; #P<0.05, compared to GEM-Lip. (C) Histological analyses of kidney sections were performed by UCLA DLAM diagnostic laboratory services. The sections were stained with hematoxylin/eosin (H&E) and examined by light microscopy. Representative images are shown. […]
One week after tumor implantation, the BxPC-3 tumor-bearing mice were randomly divided into six groups. […] The body weight and tumor size were accurately recorded one to two times per week. Tumor weight was calculated according to the formula Tumor weight (mg)=(length in mm)×(width in mm)^2/2.

A further data set in a line: Blood biochemistry. In kind it is in vivo, mice. Conditions: serum. Here is the method:
Following the animal experiments described above, the mice were sacrificed on the 38th day and serum was collected by centrifuging the whole blood at 5,000 rpm for 15 min. The biochemical parameters were assayed by UCLA Division of Laboratory Animal Medicine (DLAM) diagnostic laboratory services.

The nature of data set [2]: Histology of kidney, liver and spleen. Type of data set: in vivo, mice. Conditions: H&E, day 38. Here is the method: (A) The animal treatments are described in the method section. BxPC3 cells were subcutaneously injected into mice 7 days before treatments (gray boxes). These animals received six i.v. injections (red boxes) every 3-6 days (green boxes) for 38 days as shown. The tumor inhibition effect of two-wave treatment was compared to saline, GEM-Lip alone, free GEM, empty liposome, and TGFβi-MSNP. Tumor size was accurately measured 1-2 times per week. Tumor weight was calculated according to the formula Tumor weight (mg)=(length in mm)×(width in mm)2/2. *P<0.05, compared to GEM-Lip group. (B) The animal weights were recorded at indicate time points and expressed for the experimental duration. *P<0.05, compared to saline; #P<0.05, compared to GEM-Lip. (C) Histological analyses of kidney sections were performed by UCLA DLAM diagnostic laboratory services. The sections were stained with hematoxylin/eosin (H&E) and examined by light microscopy. Representative images are shown. Higher magnification images were provided to shown the swelling and edema occur in Bowman's space, a morphological abnormality of GEM-induced renal toxicity. White arrows point to normal Bowman's space in glomerulus, and the black arrows point to the swelling and edema occur in Bowman's space.
Appropriate size sections of the tumor, liver, kidney, and spleen were fixed in 10% formalin and then embedded into paraffin. […]

The test system of data set [3] is cytidine deaminase (CDA); BxPC3 cells. Description: Protection against CDA-mediated GEM inactivation (MTS assay). Type of data set: cell-based, human. Conditions: CDA 100 ng/mL, 1 h at 37° C., then BxPC3 cells 72 h. As for the experimental part:
We also assess the ability of the liposome to protect GEM against the effect of on cytidine deaminase (CDA), which plays a key role in drug inactivation (circulatory half-life of <8 minutes) in the clinic. Briefly, free GEM or GEM-laden liposomes were mixed with CDA enzyme at a concentration of 100 ng/mL in the incubation medium for 1 h at 37° C. The incubation media were then added to BxPC3 cells, which were cultured in 96 wells plate for 72 h. IC50 values were determined by the MTS assay for each group. The results were compared to the IC50 values for GEM or GEM-liposomes, not incubated with CDA. […] By contrast, free GEM was not protected against the effect of CDA.

A further data set relates to PDAC. Conditions: previously untreated PDAC patients with metastatic disease; cited from earlier work.
For data set [4] the following is noted: in the clinic; cited from earlier work.
For data set [5], the system named is Smad2 phosphorylation in PCs. Description: Smad2 activation assay (pSmad2 immunofluorescence). In kind it is cell-based, human. Conditions: PCs treated with 2 ng/mL TGF-β, inhibitor dose of 1 M. As for the experimental part:
(A) HDME cells (10^4 cells/mL) and HSM cells (5×10^3 cells/mL) were first stained by CellTracker™ Green CMFDA (Invitrogen, Grand Island, NY) and CellTracker™ Red CMTPX (Invitrogen, Grand Island, NY) according the manufacture's instruction 24 h before experiment. After live cell staining, ECs were treated with 2 ng/mL of TGF-β for 3 h and PCs were treated with […] or TGFβi-MSNP at inhibitor dose of 1 μM for 3 h. Subsequently, both cell types were co-cultured in Matrigel-coated 6-well plates for further incubation of 16 h at 37° C. PC/EC adhesions were quantitatively determined from five fields of three independent samples with the fluorescent microscope (Zeiss, Germany). *, P<0.05. (B) Use of immunofluorescence assay to determine the level of Smad2 phosphorylation. PCs were seeded in 8-well chamber slides. 16 h post cell seeding, PCs were treated with 2 ng/mL TGF-β for 3 h. Subsequently, the cells were treated with TGFβi-laden MSNP at the inhibitor dose of 1 M for 1-24 h. […] The slides were visualized under a fluorescence microscope. (C) The signal intensity of the green channel, reflecting activated Smad2 (pSmad2), was calculated by Image J software (version 1.37c, NIH). *, P<0.05.
Smad2 activation was determined using an immunofluorescent staining in 8-well chamber slides in which 4×10^4 PCs were cultured in each well containing 0.4 mL culture medium. […]

Data set [6] deals with PC coverage of ECs in BxPC3 xenograft. Description: CD31/NG2 co-staining of ECs and PCs in BxPC3 xenograft. In kind it is in vivo, nude mice. Conditions: i.v., inhibitor dose 1 mg/kg, tumor collected 1-2 h post injection. Here is the method: “T” indicates tumor cells. Arrows point out stroma. (B) Tumor-bearing animals (tumor size of 0.8˜1.0 cm in diameter) were divided into two groups and received i.v. injection of TGFβi-MSNP at inhibitor dose of 1 mg/kg (MSNP dose of 2 mg/kg). Saline and i.v. injection of free inhibitor at same dose were used as control. Tumor tissues were quickly collected 1-2 h post injection and OCT embedded for frozen section and dual color immunohistochemistry staining. The procedure of the staining was provided in the method section. This dual color staining that labels EC maker CD31 in green (FITC) and PC maker NG2 in red (Alexa fluor 594) were used to compare the effect of tumor blood vessel integrity and quantify the extent of PC/EC association. Zoom-in images were provided at higher magnification to show the extent of PC/EC association in each group. PC covered EC were quantified in three random fields in each group. *, P<0.05. […]
The tumor tissues were rapidly embedded by OCT reagent before sectioning to provide 4 m thick slices. […] The slides were visualized under a fluorescence microscope. The PC coverage was counted from three randomly selected fields.

The next data set concerns tumor. Conditions: animal study; cited from earlier work.

`Nc1ccn([C@@H]2O[C@H](CO)[C@@H](O)C2(F)F)c(=O)n1` [Free GEM, gemcitabine]: the body weight change entry in [1] is given as “reduced weight gain”. In the data set “Blood biochemistry” (day 38), the ALB is listed as 3.2 ± 0.1 g/dL, the ALP stood at 55.8 ± 9.8 U/L, the ALT worked out at 42.5 ± 33.8 U/L and the AST came to 222 ± 178 U/L. In addition, in the data set “Blood biochemistry” (day 38), the BUN was 38.0 ± 11.3 mg/dL, the CA worked out at 9.4 ± 0.3 mg/dL, the CHOL is 58.7 ± 4.0 mg/dL and the CK is 512.0 ± 39.6 U/L. In addition, in the data set “Blood biochemistry” (day 38), the CO2 was 20.5 ± 2.8 mEq/L, the CREAT is on record as 0.2 ± 0.0 mg/dL, the DBILI came to 0.7 ± 0.5 mg/dL and the GGT came out at 5.3 ± 1.155 U/L. In addition, in the data set “Blood biochemistry” (day 38), the GLU is 128.3 ± 16.9 mg/dL, the PHOS was 6.1 ± 1 mg/dL, the TBILI is given as 0.5 ± 0.2 mg/dL and the TP was 5.1 ± 0.2 g/dL. Also, the BUN CR in “Blood biochemistry” (day 38, BUN-to-creatinine ratio) was found to be 191 ± 16. Besides, in data set [2], the “kidney histology (glomerular swelling and edema of Bowman's space)” value is reported as “intermediate nephrotoxicity”. Besides, the “protection of GEM against CDA” value in data set [3] is reported as “not protected”. In addition, the median overall survival in the data set with PDAC is recorded as 6.7 months. Besides, in data set [4], the circulatory half-life was below 8 min.
For `c1ccc(-c2[nH]ncc2-c2ccnc3ccccc23)nc1` [LY364947], the “duration of inhibition of Smad2 phosphorylation” value in data set [5] was 6 h. Also, the “composite fluorescence staining of PC overlap with ECs in tumor” value in data set [6] was “slight but non-significant reduction”.
As for `CC(=O)O[C@H]1C(=O)[C@@]2(C)[C@H]([C@H](OC(=O)c3ccccc3)[C@]3(O)C[C@H](OC(=O)[C@H](O)[C@@H](NC(=O)c4ccccc4)c4ccccc4)C(C)=C1C3(C)C)[C@]1(OC(C)=O)CO[C@@H]1C[C@@H]2O` [paclitaxel], the “increase of GEM content in the tumor” value in the data set on tumor is recorded as 2.8 fold.
